One data set concerns HCV replicon. Briefly: microbe, parasite or virus in culture. To be noted: Hepatitis C virus, 48 h, read-out: Replicon IC5Os. Type of data set: cell-based.

In the case of `CCOc1ccc2c(C#N)c(-c3ccc(NS(C)(=O)=O)cc3)n(CC(C)C)c2c1` [Compound 471], the melting point fell in the range of 154 to 156 °C. Besides, the IC50 with HCV replicon is less than 500 nM.

For the molecule `CCOc1ccc2c(C#N)c(-c3ccc(NS(C)(=O)=O)cc3)n(C3CCC3)c2c1` [Compound 472], the melting point fell in the range of 215 to 217 °C. The IC50 in the data set with HCV replicon was less than 500 nM.

As to `CCOc1ccc2c(C#N)c(-c3ccc(NS(=O)(=O)CC)cc3)n(C3CCC3)c2c1` [Compound 473], the melting point is 189 to 191 °C. In addition, in the data set on HCV replicon, the IC50 was less than 500 nM.

With `CCn1c(-c2ccc(NS(C)(=O)=O)cc2)c(C#N)c2ccc(OCCCl)cc21` [Compound 477], the melting point was in the range of 194 to 195 °C. Besides, the IC50 with HCV replicon was less than 500 nM.

For the molecule `CCn1c(-c2ccc(NS(C)(=O)=O)cc2)c(C#N)c2ccc(OCCN3CCSCC3)cc21` [Compound 480], the melting point fell in the range of 207 to 208 °C. The IC50 in the data set with HCV replicon was less than 500 nM.

The molecule `CCCS(=O)(=O)Nc1ccc(-c2c(C#N)c3ccc(OCCCl)cc3n2CC)cc1` [Compound 495] returned a melting point of 126 to 128 °C. Also, the IC50 in the data set on HCV replicon was 500 to 2000 nM.

`CCn1c(-c2ccc(NS(C)(=O)=O)cc2)c(C#N)c2ccc(OCCN(C)C)cc21` [Compound 498] gave a melting point of 192 to 194 °C. In addition, in the data set with HCV replicon, the IC50 fell in the range of 500 to 2000 nM.

With `CCn1c(-c2ccc(NS(=O)(=O)CC)cc2)cc2ccc(OC(F)F)cc21` [Compound 516, ethanesulfonic acid [4-(6-difluoromethoxy-1-ethyl-1H-iodo-2-yl)-phenyl]-amide], the melting point is 155 to 156 °C. Further, the IC50 in the data set with HCV replicon lay within 500 to 2000 nM.

`Cn1c(-c2ccc(NS(C)(=O)=O)cc2)c(C#N)c2ccc(OC(F)F)cc21` [Compound 518] gave a melting point of 197 to 199 °C. Besides, the IC50 in the data set on HCV replicon is 500 to 2000 nM.

As for `CCn1c(-c2ccc(NS(=O)(=O)CC)cc2)c(C#N)c2ccc(OC(F)F)cc21` [Compound 520], the melting point was in the range of 175 to 177 °C. Moreover, the IC50 in the data set on HCV replicon is less than 500 nM.

`CCCn1c(-c2ccc(NS(C)(=O)=O)cc2)c(C#N)c2ccc(OC(F)F)cc21` [Compound 521] came in with a melting point of 184 to 186 °C. Further, the IC50 in the data set on HCV replicon is less than 500 nM.

`CC(C)n1c(-c2ccc(NS(C)(=O)=O)cc2)c(C#N)c2ccc(OC(F)F)cc21` [Compound 523] returned a melting point of 190 to 192 °C. Moreover, in the data set with HCV replicon, the IC50 was less than 500 nM.

Consider `CCn1c(-c2cccc(NS(=O)(=O)NC(C)C)c2)c(C#N)c2ccc(OC)cc21` [Compound 542], for which the melting point was 186 to 188 °C. Further, the IC50 in the data set with HCV replicon was 500 to 2000 nM.

Regarding `CCn1c(-c2ccc(N)cc2)c(C#N)c2ccc(OCCF)cc21` [Compound 543], the melting point is 197 to 200 °C. Besides, in the data set with HCV replicon, the IC50 lay in the range of 500 to 2000 nM.

`CCn1c(-c2ccc(NC(=O)C3CC3)cc2)c(C#N)c2ccc(OCCF)cc21` [Compound 544] came in with a melting point of 263 to 265 °C. Moreover, in the data set on HCV replicon, the IC50 is less than 500 nM.

As to `CCn1c(-c2ccc(NC(=O)OC)cc2)c(C#N)c2ccc(OCCF)cc21` [Compound 545], the melting point is 203 to 205 °C. In addition, the IC50 in the data set on HCV replicon fell in the range of 500 to 2000 nM.

`CCOC(=O)Nc1ccc(-c2c(C#N)c3ccc(OCCF)cc3n2CC)cc1` [Compound 546] returned a melting point of 208 to 210 °C. In the data set on HCV replicon, the IC50 was less than 500 nM.

Take `CCn1c(-c2ccc(NS(C)(=O)=O)cc2)c(C#N)c2ccc(OCCF)cc21` [Compound 548]: the melting point fell in the range of 171 to 174 °C. The IC50 in the data set with HCV replicon lay in the range of 500 to 2000 nM.

As to `CCn1c(-c2ccc(NS(=O)(=O)CC)cc2)c(C#N)c2ccc(OCCF)cc21` [Compound 549], the melting point fell in the range of 150 to 153 °C. In the data set on HCV replicon, the IC50 was less than 500 nM.

Turning to `CCCS(=O)(=O)Nc1ccc(-c2c(C#N)c3ccc(OCCF)cc3n2CC)cc1` [Compound 550], the melting point fell in the range of 183 to 185 °C. Also, the IC50 in the data set with HCV replicon lay in the range of 500 to 2000 nM.

Regarding `CCn1c(-c2ccc(NS(=O)(=O)CCCCl)cc2)c(C#N)c2ccc(OCCF)cc21` [Compound 551], the melting point lay within 187 to 190 °C. In addition, the IC50 in the data set with HCV replicon lay in the range of 500 to 2000 nM.

For `CCn1c(-c2ccc(NS(=O)(=O)C3CC3)cc2)c(C#N)c2ccc(OCCF)cc21` [Compound 552], the melting point was in the range of 185 to 188 °C. Also, the IC50 with HCV replicon is less than 500 nM.

`CCCS(=O)(=O)Nc1cccc(-c2c(C#N)c3ccc(C(F)(F)F)cc3n2CC)c1` [Compound 563] registered a melting point of 210 to 212 °C. Besides, the IC50 in the data set with HCV replicon fell in the range of 500 to 2000 nM.

In the case of `CCn1c(-c2ccc(NC(=O)C3CCC3)cc2)c(C#N)c2ccccc21` [Compound 567], the melting point is 238.2 to 238.6 °C. For the same molecule, the IC50 with HCV replicon is 500 to 2000 nM.

In turn, `CCn1c(-c2ccc(C(=O)NC(C)C)cc2)c(C#N)c2cc(OC)ccc21` [Compound 570] yielded a melting point of 220 to 222 °C. The IC50 with HCV replicon lay in the range of 500 to 2000 nM.

In the case of `CCS(=O)(=O)Nc1ccc(-c2c(C#N)c3cc(OC)ccc3n2C)cc1` [Compound 580], the melting point fell in the range of 198 to 200 °C. Moreover, the IC50 with HCV replicon is less than 500 nM.

`CCCS(=O)(=O)Nc1ccc(-c2c(C#N)c3cc(Cl)ccc3n2CC)cc1` [Compound 601] showed a melting point of 195 to 200 °C. Also, the IC50 with HCV replicon is less than 500 nM.

`CCn1c(-c2ccc(NS(=O)(=O)C3CC3)cc2)c(C#N)c2cc(Cl)ccc21` [Compound 602] yielded a melting point of 179 to 184 °C. Also, in the data set on HCV replicon, the IC50 was less than 500 nM.

For the molecule `CCCOC(=O)Nc1cccc(-c2c(C#N)c3cc(N4CCOCC4)ccc3n2CC)c1` [Compound 606], the melting point is 166 to 170 °C. The IC50 in the data set with HCV replicon is less than 500 nM.

Consider `CCn1c(-c2cccc(NC(=O)OCCOC)c2)c(C#N)c2cc(N3CCOCC3)ccc21` [Compound 607], for which the melting point was 189 to 194 °C. The IC50 in the data set with HCV replicon was less than 500 nM.

For the molecule `COc1ccc2c(C#N)c(-c3ccc(NS(C)(=O)=O)cc3)n(CC3CC3)c2c1` [Compound 611], the melting point was 126 to 128 °C. The IC50 with HCV replicon was 500 to 2000 nM.

Regarding `CCS(=O)(=O)Nc1ccc(-c2c(C#N)c3ccc(OC)cc3n2CC2CC2)cc1` [Compound 612], the melting point was 198 to 200 °C. The IC50 with HCV replicon fell in the range of 500 to 2000 nM.

Molecule `CS(=O)(=O)Nc1ccc(-c2c(C#N)c3ccc(OC(F)F)cc3n2CC2CC2)cc1` [Compound 613] had a melting point of 198 to 200 °C. In addition, in the data set with HCV replicon, the IC50 was less than 500 nM.

As for `CCS(=O)(=O)Nc1ccc(-c2c(C#N)c3ccc(OC(F)F)cc3n2CC2CC2)cc1` [Compound 614], the melting point was 176 to 177 °C. Moreover, the IC50 in the data set with HCV replicon was less than 500 nM.

`CCCCS(=O)(=O)Nc1ccc(-c2c(C#N)c3cc(Cl)ccc3n2CC)cc1` [Compound 616] had a melting point of 143 to 149 °C. The IC50 in the data set on HCV replicon is less than 500 nM.

For the molecule `CCn1c(-c2ccc(NS(=O)(=O)CCCCl)cc2)c(C#N)c2cc(Cl)ccc21` [Compound 617], the melting point was 164 to 167 °C. Also, the IC50 in the data set with HCV replicon was less than 500 nM.

Molecule `CCOC(=O)Nc1ccc(-c2c(C#N)c3cc(Cl)ccc3n2CC)cc1` [Compound 618] registered a melting point of 205 to 211 °C. Besides, the IC50 in the data set on HCV replicon is less than 500 nM.

For `CCCOC(=O)Nc1ccc(-c2c(C#N)c3cc(Cl)ccc3n2CC)cc1` [Compound 619], the melting point is 201 to 206 °C. Also, the IC50 with HCV replicon was in the range of 500 to 2000 nM.

Molecule `CCCn1c(-c2ccc(NS(=O)(=O)CCC)cc2)c(C#N)c2ccc(OC)cc21` [Compound 621] gave a melting point of 187 to 188 °C. Also, the IC50 in the data set with HCV replicon lay within 500 to 2000 nM.

`CCCn1c(-c2ccc(NS(=O)(=O)C(C)C)cc2)c(C#N)c2ccc(OC)cc21` [Compound 622] gave a melting point of 182 to 183 °C. In addition, in the data set on HCV replicon, the IC50 fell in the range of 500 to 2000 nM.

`CCCn1c(-c2ccc(NS(=O)(=O)Cc3ccccc3)cc2)c(C#N)c2ccc(OC)cc21` [Compound 623] registered a melting point of 217 to 218 °C. Also, the IC50 with HCV replicon fell in the range of 500 to 2000 nM.

`CCCn1c(-c2ccc(NC(=O)NCC)cc2)c(C#N)c2ccc(OC)cc21` [Compound 626] returned a melting point of 193 to 194 °C. The IC50 with HCV replicon is 500 to 2000 nM.

Regarding `CCCNC(=O)Nc1ccc(-c2c(C#N)c3cc(Cl)ccc3n2CC)cc1` [Compound 628], the melting point is 221 to 226 °C. Also, the IC50 in the data set with HCV replicon is 500 to 2000 nM.

As to `CCS(=O)(=O)Nc1ccc(-c2c(C#N)c3cc(Cl)ccc3n2CCC(C)C)cc1` [Compound 631], the melting point is 177 to 182 °C. Besides, the IC50 in the data set with HCV replicon is 500 to 2000 nM.

Regarding `C=Cn1c(-c2ccc(NS(=O)(=O)CC)cc2)c(C#N)c2ccc(OC)cc21` [Compound 633], the melting point is 159 to 161 °C. Also, in the data set with HCV replicon, the IC50 fell in the range of 500 to 2000 nM.

On to `C=Cn1c(-c2ccc(NS(=O)(=O)C3CC3)cc2)c(C#N)c2ccc(OC)cc21` [Compound 635], for which the melting point was in the range of 200 to 201 °C. In addition, the IC50 with HCV replicon is less than 500 nM.

As to `CCCn1c(-c2ccc(NC(=O)OC(C)C)cc2)c(C#N)c2ccc(OC)cc21` [Compound 641], the melting point was 177 to 178 °C. Besides, in the data set with HCV replicon, the IC50 was in the range of 500 to 2000 nM.

Turning to `CCn1c(-c2ccc(CNS(C)(=O)=O)cc2)c(C#N)c2ccc(OC)cc21` [Compound 650], the melting point lay in the range of 165 to 166 °C. The IC50 in the data set with HCV replicon was in the range of 500 to 2000 nM.

For `CCn1c(-c2ccc(N(C)S(=O)(=O)CCl)cc2)c(C#N)c2ccc(OC)cc21` [Compound 652], the melting point lay within 191 to 194 °C. Also, the IC50 with HCV replicon was less than 500 nM.

The molecule `CCCOc1ccc2c(C#N)c(-c3ccc(N4CCCS4(=O)=O)cc3)n(CC)c2c1` [Compound 667] had a melting point of 242 to 244 °C. Moreover, in the data set with HCV replicon, the IC50 is less than 500 nM.

Molecule `CCn1c(-c2ccc(NS(=O)(=O)CC)cc2)c(C#N)c2ccc(OCc3cccnc3)cc21` [Compound 669] displayed a melting point of 213 to 215 °C. The IC50 in the data set with HCV replicon is less than 500 nM.

Molecule `CCn1c(-c2ccc(NS(=O)(=O)C3CC3)cc2)c(C#N)c2ccc(OCc3cccnc3)cc21` [Compound 670] yielded a melting point of 231 to 233 °C. Also, in the data set on HCV replicon, the IC50 was less than 500 nM.

`CCn1c(-c2ccc(NS(=O)(=O)CC)cc2)c(C#N)c2ccc(OCc3ccccn3)cc21` [Compound 671] registered a melting point of 221 to 222 °C. The IC50 in the data set with HCV replicon was less than 500 nM.

These data come from patent US8013006B2.
